Assay results published in paper PMC8143291, “Cytotoxicity and Microbicidal Activity of Commonly Used Organic Solvents: A Comparative Study and Application to a Standardized Extract from Vaccinium macrocarpon” (Toxics, 2021).

Tests used:
[1] = test system: A-375 (malignant melanoma); assay: MTT dye-reduction cytotoxicity assay (ISO 10993-5); type: cell-based, human; details: solvent alone, n = 3
From the text: The cell lines utilized in this study included the human tumor lines A-375 (malignant melanoma) and A-431 (non-melanoma epidermoid squamous skin carcinoma) as well as the models for non-tumorigenic cells—HaCaT (immortalized human keratinocytes) and CCL-1^TM (transformed mouse fibroblasts, NCTC clone 929). The first three cell lines were obtained from CLS Cell Lines Service (GmbH, Eppelheim, Germany). CCL-1^TM was purchased from the American Type Culture Collection (ATCC, Manassas, VA, USA). Cells were maintained in a controlled environment—sterile cell culture flasks in a CO2 incubator Panasonic MCO-18AC (Panasonic Healthcare co., ltd, Oizumi-Machi, Japan) at 37 °C and a humidified atmosphere containing 5% CO2. CCL-1 was cultured in MEM with 10% heat-inactivated horse serum and 2 mM L-glutamine, and the cell culture medium for the rest of the cell lines was DMEM-HG with 4.5 g/L glucose with the addition of 10% heat-inactivated fetal bovine serum and 4 mM L-glutamine. Pen/strep (concentration of penicillin G sodium 10^5 Units/L and of streptomycin sulfate 100 mg/L) was added to both culture media. The cell lines were maintained as an adherent monolayer in a log phase. The cells were sub-cultivated about 1–3 times per week after the monolayer reached 80–90% confluence. The medium was removed from the flask, and the cell monolayer was washed with 3–5 mL PBS. The cells were incubated with 0.05% EDTA in PBS for 8–10 min, followed by the next step where all cell lines were subjected to enzyme cell detachment. HaCaT and CCL-1 monolayers were detached with 1 mL solution of trypsin/EDTA (0.1%/0.05% for HaCaT and 0.25% (w/v)/0.53 mM for CCL-1) and incubated for 2–5 min at 37 °C (for HaCaT) or at room temperature (for CCL-1 cells), whereas Accutase® was used for A-375 and A-431 lines. The incubation lasted until the separation and dispersion of the cells in the monolayer were observed using light microscopy. In the end, all cell lines were resuspended in 10 mL medium and centrifuged for 3 min at 300× g. The cell pellet was resuspended in fresh medium and sub-cultivated at a seeding density of 1.0 × 10^4 cells/cm^2.
The MTT test was performed in order to determine the median inhibitory (IC50) and MTC concentrations of the solvents and PAC according to Annex C, ISO 10993-5 [2, 21]. Briefly, 100 µL of the cell suspension (1 × 10^5 cells/mL) were seeded per well in 96-well plates with a flat bottom. The cells were incubated for 24 h, allowing them to enter the log phase of their growth. On the 24th hour, the cells were treated with the solvents or CystiCran® solutions in concentrations ranging between 0.004% and 2% volume fraction (v/v) and incubated further for 72 h. The incubation periods are following the recommendations of the FDA guide for the use of ISO 10993-1 [1]. At the end of the incubation period, 10 µL of an MTT solution (5 mg/mL) were added to each well, and the plates were kept at 37 °C for 2 hours. Thereafter, the medium was aspirated, and the formed formazan crystals were dissolved in 100 μL/well of 2-propanol supplemented with 5% formic acid. The same solvent was used as a blank. […] The absorption was measured at 540 nm (reference filter at 690 nm) on a microplate reader ELx800 (BioTek Instruments, Inc., Winooski, VT, Winooski, VT, USA).
The IC50 values from the MTT assay were evaluated with a non-linear regression analysis (Curve fit, GraphPad Prizm 6.01 software, GraphPad Software Inc., San Diego, CA, USA) using sigmoidal concentration–response curves. […]

[2] = test system: breast cancer, mouse macrophage and human umbilical vein endothelial cells; set-up: method as in doi:10.17795/ajmb-33453; details: cited from earlier work
[3] = test system: E. coli ATCC 35218; assay: Dehydrogenase activity (DEHA) MTT test after BMD; type: cell-based, Escherichia coli; details: in MHB; 24 h exposure; % against untreated control; ± SD; n = 3
Method: (§1) The cell dehydrogenase (DEHA, redox, metabolic) activity of all samples was measured at the end of the BMD assay, based on reducing the MTT dye to formazan by the membrane located bacterial enzyme NADH: ubiquinone reductase (H^+-translocation). The protocol of Wang et al. was applied after minor modifications. Briefly, each sample was incubated for 120 min at 37 °C with MTT at a final concentration of 0.5 mg/mL in the culture medium. The resulting non-soluble violet formazan crystals were dissolved with an equal volume of 2-propanol supplemented with 5% formic acid. The absorbance was measured at 550 nm against a blank solution containing the respective volumes of MHB and MTT.
The IC50 values from the MTT assay were evaluated with a non-linear regression analysis (Curve fit, GraphPad Prizm 6.01 software, GraphPad Software Inc., San Diego, CA, USA) using sigmoidal concentration–response curves. The cell viability is presented as a percentage of the untreated control. […] The maximum tolerated concentration (MTC) for the cell lines was determined from three independent assays according to ISO 10993-5 as the maximum concentration at which at least 70% of the cells were viable (nonlin fit, range, GraphPad Prizm 6.01 software) GraphPad Software Inc., San Diego, CA, USA). […] The respiratory activity of the bacterial cultures was calculated as a percentage against the untreated control.

[4] = test system: Y. enterocolitica IP 864 O: 3; assay: Dehydrogenase activity (DEHA) MTT test after BMD; type: cell-based, Yersinia enterocolitica; details: 24 h exposure; % against untreated control; ± SD; n = 3
Method: as §1
The IC50 values from the MTT assay were evaluated with a non-linear regression analysis (Curve fit, GraphPad Prizm 6.01 software, GraphPad Software Inc., San Diego, CA, USA) using sigmoidal concentration–response curves. The cell viability is presented as a percentage of the untreated control. At least four wells were seeded for every concentration. Three independent assays were performed (n = 3). The maximum tolerated concentration (MTC) for the cell lines was determined from three independent assays according to ISO 10993-5 as the maximum concentration at which at least 70% of the cells were viable (nonlin fit, range, GraphPad Prizm 6.01 software) GraphPad Software Inc., San Diego, CA, USA). To compare the MTC values of the solvents for each cell line, the ordinary One-way ANOVA statistical analysis based on Tukey’s multiple comparisons test with a single pooled variance (GraphPad Prizm 6.01 software) GraphPad Software Inc., San Diego, CA, USA) was utilized, and p ≤ 0.05 was set as a significance level. The respiratory activity of the bacterial cultures was calculated as a percentage against the untreated control.

[5] = test system: S. Aureus ATCC 29213; assay: Dehydrogenase activity (DEHA) MTT test after BMD; type: cell-based, Staphylococcus aureus; details: 24 h exposure; % against untreated control; ± SD; n = 3
Method: as §1
The cell viability is presented as a percentage of the untreated control. At least four wells were seeded for every concentration. Three independent assays were performed (n = 3). […] The respiratory activity of the bacterial cultures was calculated as a percentage against the untreated control.

Row | SMILES | MTC (maximum tolerated concentration) ([1]; 72 h, at least 70% of cells viable) | IC50 (CI 95%) ([1]; 72 h incubation) | maximum tolerated concentration (MTC) / applicable concentration [2] | DEHA (dehydrogenase activity) [3] [%] | DEHA (dehydrogenase activity) [4] [%] | DEHA (dehydrogenase activity) [5] [%]
1 | CCO [EtOH, ethanol] | > 2 % (v/v) | > 2 % (v/v) | up to 0.5 % v/v |  |  | 
2 | C[S+](C)[O-] [DMSO, dimethyl sulfoxide] |  |  |  | 13.02 | 19.13 ± 0.17 | 12.29 ± 0.04
